System: immunoglobulin light chain protein WIL-FL T46L
Experiment: Differential scanning fluorimetry (thermal shift) assay
Type: binding
Details: temperature shift [Tm]compound-[Tm]vehicle, recombinant WIL-FL T46L

Compound	DSF (Table B)	DSF (Table A)
Cc1cc(N2CC[C@](C)(c3ccccc3)C2)cn2nc(C(=O)N3CCC(Nc4cccc(C(=O)O)n4)C4(COC4)C3)nc12 (stereo partly drawn) [Compound 702]	***** (>2.5° C.=*****)	
Cc1cc(N2CC[C@](C)(c3ccccc3)C2)cn2nc(C34CC(CO3)C4N3C[C@]4(CC[C@H](C(=O)O)CC4)NC3=O)nc12 (stereo partly drawn) [Compound 525]	***** (>2.5° C.=*****)	
C[C@]1(c2ccccc2)CCN(c2cc(CO)c3nc(C(=O)N4CCC5(C4)CN(c4cccc(C(=O)O)n4)C5)nn3c2)C1 [Compound 618]	***** (>2.5° C.=*****)	
Cc1cc(N2CC[C@](C)(c3ccccc3)C2)cn2nc(C(=O)NC3(C)CCCN(c4cccc(C(=O)O)n4)C3)nc12 (stereo partly drawn) [Compound 617]	***** (>2.5° C.=*****)	
Cc1cc(N2CC[C@](C)(c3ccccc3)C2)cn2nc(C34CC(CO3)C4c3nc(N)n[nH]3)nc12 (stereo partly drawn) [Compound 438, 5-[1-[8-methyl-6-[(3R)-3-methyl-3-phenyl-pyrrolidin-1-yl]-[1,2,4]triazolo[1,5-a]pyridine-2-yl]-2-oxabicyclo[2.1.1]hexan-5-yl]-1H-1,2,4-triazol-3-amine]		***** (>2.5° C.=*****)
Cc1cc(N2CC[C@](C)(c3ccccc3)C2)cn2nc(C(=O)NC3CCN(c4cccc(S(C)(=N)=O)n4)CC3)nc12 (stereo partly drawn) [Compound 608, 8-methyl-6-[(3R)-3-methyl-3-phenyl-pyrrolidin-1-yl]-N-[1-[6-(methylsulfonimidoyl)-2-pyridyl]-4-piperidyl]-[1,2,4]triazolo[1,5-a]pyridine-2-carboxamide]	***** (>2.5° C.=*****)	
Cc1nc(C2C3(N)COC2(c2nc4c(C)cc(N5CC[C@](C)(c6ccccc6)C5)cn4n2)C3)n[nH]1 (stereo partly drawn) [Compound 48]		***** (>2.5° C.=*****)
Cc1cc(N2CC[C@](C)(c3ccccc3)C2)cn2nc(C(=O)NC3CCC34CC(O)C4)nc12 (stereo partly drawn) [Compound 676, N-(2-hydroxyspiro[3.3]heptan-7-yl)-8-methyl-6-[(3R)-3-methyl-3-phenyl-pyrrolidin-1-yl]-[1,2,4]triazolo[1,5-a]pyridine-2-carboxamide]	***** (>2.5° C.=*****)	
Cc1cc(N2CC[C@](C)(c3ccccc3)C2)cn2nc(C(=O)N3CC4(CCN4C(=O)c4cccc(C(=O)O)n4)C3)nc12 [Compound 215]		***** (>2.5° C.=*****)
Cc1cc(N2CC[C@](C)(c3ccccc3)C2)cn2nc(C(=O)N3CC4CN(c5cccc(C(=O)O)n5)CC(C3)O4)nc12 [Compound 287]		***** (>2.5° C.=*****)
CCC1(c2ccccc2)CN(c2cc(C)c3nc(C(=O)N4C[C@@H]5CN(c6cccc(C(=O)O)n6)C[C@@H]5C4)nn3c2)C1 [Compound 631]	***** (>2.5° C.=*****)	
C[C@]1(c2ccccc2)CCN(c2cc(N)c3cc(C(=O)N4CC[C@@]5(CCN(c6cccc(C(=O)O)n6)C5)C4)nn3c2)C1 [Compound 22, 6-((R)-7-(4-amino-6-((R)-3-methyl-3-phenylpyrrolidin-1-yl)pyrazolo[1,5-a]pyridine-2-carbonyl)-2,7-diazaspiro[4.4]nonan-2-yl)picolinic acid]		**** (>1.5-2.5° C.=****)
Cc1cc(N2CC[C@](C)(c3ccccc3)C2)cn2nc(C34CC(CO3)C4N3CC4(CC4)NC3=O)nc12 (stereo partly drawn) [Compound 78]		***** (>2.5° C.=*****)
Cc1cc(N2CC[C@](C)(c3ccccc3)C2)cn2nc(C34CC(C(N)=O)(CO3)C4C(N)=O)nc12 (stereo partly drawn) [Compound 45]		***** (>2.5° C.=*****)
Cc1ncn(CC2C3COC2(c2nc4c(C)cc(OC[C@H](C)c5ccccc5)cn4n2)C3)n1 (stereo partly drawn) [Compound 487, 8-methyl-2-(5-((3-methyl-1H-1,2,4-triazol-1-yl)methyl)-2-oxabicyclo[2.1.1]hexan-1-yl)-6-((R)-2-phenylpropoxy)-[1,2,4]triazolo[1,5-a]pyridine]	*** (>1-1.5° C.=***)	
COC(C)(CC(=O)NCC12COC(c3nc4c(C)cc(N5CC[C@](C)(c6ccccc6)C5)cn4n3)(C1)C2c1nc(C)n[nH]1)C(=O)O (stereo partly drawn) [Compound 589]	***** (>2.5° C.=*****)	
Cc1cc(N2CC[C@](C)(c3ccccc3)C2)cn2nc(C(=O)N[C@H]3CNCC34CC4)nc12 [Compound 187]		***** (>2.5° C.=*****)
CCS(=O)(=O)Nc1nc(C2C3(CO)COC2(c2nc4c(C)cc(N5CC[C@](C)(c6ccccc6)C5)cn4n2)C3)n[nH]1 (stereo partly drawn) [Compound 573, N-[3-[4-(hydroxymethyl)-1-[8-methyl-6-[(3R)-3-methyl-3-phenyl-pyrrolidin-1-yl]-[1,2,4]triazolo[1,5-a]pyridin-2-yl]-2-oxabicyclo[2.1.1]hexan-5-yl]-1H-1,2,4-triazol-5-yl]ethanesulfonamide]	***** (>2.5° C.=*****)	
CNC(=O)c1nc2c(C)cc(N3CC[C@@](C)(c4ccccc4)C3)cc2o1 [Compound 435]		***** (>2.5° C.=*****)
Cc1cc(N2CC[C@](C)(c3ccccc3)C2)cn2nc(C34CC(CO3)C4COC3CCN(c4cccc(C(=O)O)n4)CC3)nc12 (stereo partly drawn) [Compound 503]	***** (>2.5° C.=*****)	
Cc1cc(N2CC[C@](C)(c3ccccc3)C2)cn2nc(C(=O)NC3CCN(c4ccc(C(=O)O)nc4)C3)nc12 (stereo partly drawn) [Compound 271]		***** (>2.5° C.=*****)

Compound	DSF (Table B)	DSF (Table A)
Cc1cc(N2CC[C@](C)(c3ccccc3)C2)cn2nc(C(=O)N3CCC4(CCN(c5ccnc(C(=O)O)c5)C4)C3)nc12 (stereo partly drawn) [Compound 257]		***** (>2.5° C.=*****)
COc1ncc(N2CC[C@@]3(CCN(C(=O)c4nc5c(C)cc(N6CC[C@](C)(c7ccccc7)C6)cn5n4)C3)C2)cc1C(=O)O [Compound 718]	***** (>2.5° C.=*****)	
Cc1cc(N2CC[C@](C)(c3ccccc3)C2)cn2nc(C(=O)NC3CC4(CCN(c5cccc(C(=O)O)n5)CC4)C3)nc12 [Compound 642, 6-[2-[[8-methyl-6-[(3R)-3-methyl-3-phenyl-pyrrolidin-1-yl]-[1,2,4]triazolo[1,5-a]pyridine-2-carbonyl]amino]-7-azaspiro[3.5]nonan-7-yl]pyridine-2-carboxylic acid]	***** (>2.5° C.=*****)	
Cc1ccc(C(=O)O)nc1N1CCC2(CCN(C(=O)c3nc4c(C)cc(N5CC[C@](C)(c6ccccc6)C5)cn4n3)C2)C1 (stereo partly drawn) [Compound 692]	***** (>2.5° C.=*****)	
Cc1cc(N2CC[C@](C)(c3ccccc3)C2)cn2nc(C(=O)N3CCC4(CCCC(C(=O)O)C4)C3)nc12 (stereo partly drawn) [Compound 606]	***** (>2.5° C.=*****)	
Cc1cc(N2CC[C@](C)(c3ccccc3)C2)cn2nc(C(=O)NC34CCC(CO)(CC3)OC4)nc12 [Compound 602]	***** (>2.5° C.=*****)	
Cc1cc(N2CC[C@](C)(c3ccccc3)C2)cn2nc(C(=O)N3CCC4(CCN(c5cncc(C(=O)O)c5)C4)C3)nc12 (stereo partly drawn) [Compound 717]	***** (>2.5° C.=*****)	
Cc1cc(N2CC[C@](C)(c3ccccc3)C2)cn2nc(C(=O)N3C[C@H](O)[C@@]4(CCN(c5cccc(C(=O)O)n5)C4)C3)nc12 [Compound 703, Mis6-[4-hydroxy-2-[8-methyl-6-[(3R)-3-methyl-3-phenyl-pyrrolidin-1-yl]-[1,2,4]triazolo[1,5-a]pyridine-2-carbonyl]-2,7-diazaspiro[4.4]nonan-7-yl]pyridine-2-carboxylic acid]	***** (>2.5° C.=*****)	
Cc1cc(N2CC3(CC[C@@]3(C)c3ccccc3)C2)cn2nc(C(=O)N3CC[C@@]4(CCN(c5cccc(C(=O)O)n5)C4)C3)nc12 [Compound 743, 6-[(5R)-2-[8-methyl-6-[(7S)-7-methyl-7-phenyl-2-azaspiro[3.3]heptan-2-yl]-[1,2,4]triazolo[1,5-a]pyridine-2-carbonyl]-2,7-diazaspiro[4.4]nonan-7-yl]pyridine-2-carboxylic acid]	***** (>2.5° C.=*****)	
Cc1cc(N2CC[C@](C)(c3ccccc3)C2)cn2nc(C(=O)NC3CN(c4cccc(C(=O)O)n4)CC34COC4)nc12 (stereo partly drawn) [Compound 646]	***** (>2.5° C.=*****)	
Cc1cc(N2CC[C@](C)(c3ccccc3)C2)cn2nc(C(=O)NC3CC(O)(C(F)(F)F)C3)nc12 (stereo partly drawn) [Compound 205]		***** (>2.5° C.=*****)
Cc1cc(N2CC[C@](C)(c3ccccc3)C2)cn2nc(C(=O)N3CC4(C(=O)O)CC3C4)nc12 [Compound 439]		***** (>2.5° C.=*****)
Cc1cc(N2CCC(C)(c3ccc(F)c(F)c3)C2)cn2nc(C(=O)N3C[C@@H]4CN(c5cccc(C(=O)O)n5)C[C@@H]4C3)nc12 (stereo partly drawn) [Compound 421]		***** (>2.5° C.=*****)
Cc1cc(N2CC[C@](C)(c3ccccc3)C2)cn2nc(C(=O)N3CCCC(C(=O)O)C3)nc12 (stereo partly drawn) [Compound 197]		***** (>2.5° C.=*****)
Cc1cc(N2CC[C@](C)(c3ccccc3)C2)cn2nc(C(=O)N3CCC4(CC3)CCN(c3cccc(C(=O)O)n3)C4)nc12 [Compound 239]		***** (>2.5° C.=*****)
Cc1cc(N2CC[C@](C)(c3ccccc3)C2)cn2nc(C(=O)N3CCC4(CCN(C5CCC(C(=O)O)CC5)C4)C3)nc12 (stereo partly drawn) [Compound 377]		***** (>2.5° C.=*****)
Cc1cc(N2CC(CF)(c3ccccc3)C2)cn2nc(C(=O)N3CC[C@@]4(CCN(c5cccc(C(=O)O)n5)C4)C3)nc12 [Compound 752, 6-[(5R)-2-[6-[3-(fluoromethyl)-3-phenyl-azetidin-1-yl]-8-methyl-[1,2,4]triazolo[1,5-a]pyridine-2-carbonyl]-2,7-diazaspiro[4.4]nonan-7-yl]pyridine-2-carboxylic acid]	***** (>2.5° C.=*****)	
Cc1cc(N2CCC(C)(c3ccc(F)cn3)C2)cn2nc(C(=O)N3CC[C@@]4(CCN(c5cccc(C(=O)O)n5)C4)C3)nc12 (stereo partly drawn) [Compound 423]		*** (>1-1.5° C.=***)
Cc1cc(N2CC[C@](C)(c3ccccc3)C2)cn2nc(C(=O)NC3CN(c4cccc(C(=O)O)n4)CC4(COC4)C3)nc12 (stereo partly drawn) [Compound 699, 6-[6-[[8-methyl-6-[(3R)-3-methyl-3-phenyl-pyrrolidin-1-yl]-[1,2,4]triazolo[1,5-a]pyridine-2-carbonyl]amino]-2-oxa-8-azaspiro[3.5]nonan-8-yl]pyridine-2-carboxylic acid]	***** (>2.5° C.=*****)	
Cc1nnc(C2C3COC2(c2nc4c(C)cc(N5CC[C@](C)(c6ccccc6)C5)cn4n2)C3)o1 (stereo partly drawn) [Compound 75]		***** (>2.5° C.=*****)
Cc1ccc(N2CC[C@@]3(CCN(C(=O)c4nc5c(C)cc(N6CC[C@](C)(c7ccccc7)C6)cn5n4)C3)C2)nc1C(=O)O [Compound 710]	***** (>2.5° C.=*****)	

Reference: US20260285857A1, “BICYCLIC AND HETEROCYCLIC AMIDE COMPOUNDS” (priority 2024, published 2026)
